Test results as given in patent US9669095B2, “Cyclosporin analogues for preventing or treating hepatitis C infection” (Enanta Pharmaceuticals, Inc., priority 2014, dated 2017).
*1 amine or outer side, *2 acyl side, *3 side chain or, on linkers, in order; H or OH if unused. Where a SMILES comes first, the peptide text is derived from it. [ ]: non-standard residue; d: D form. X1 = C/C=C/C[C@@H](C)C1ON([*:1])[C@@H]1C(=O)[*:2]; X2 = CNCC(C)(C)[C@@H](C(=O)[*:2])N(C)[*:1]; NMeL = CN[C@@H](CC(C)C)C(=O)O; NMeV = CN[C@H](C(=O)O)C(C)C; dNMeA = CN[C@H](C)C(=O)O; Abu = CC[C@H](N)C(=O)O

System: HCV 1a genotype
Assay type: cell-based, hepatitis C virus
Conditions: Genotype-1a replicon, Luciferase assay, 72 hours

## C/C=C/C[C@@H](C)C1ON2C(=O)[C@H](C(C)C)N(C)C(=O)[C@H](CC(C)C)N(C)C(=O)[C@H](CC(C)C)N(C)C(=O)[C@@H](C)NC(=O)[C@H](C)NC(=O)[C@H](CC(C)C)N(C)C(=O)[C@H](C(C)C)NC(=O)[C@H](C(C)(C)CNC)N(C)C(=O)[C@@H](C)N(C)C(=O)[C@H](CC)NC(=O)[C@H]12 (stereo partly shown) [Example 1] (cyclo(A[dA][NMeL][NMeL][NMeV][X1][Abu][dNMeA][X2]V[NMeL]))
  EC50: 10 to 100 nM
